Source: US20260327260A1, “PHOSPHONOALANINE OLIGOPEPTIDES AND METHODS OF MAKING AND USE THEREOF” (priority 2023, published 2026)
Residues, ends and D or L forms follow the SMILES beside them.

How the values were obtained:
Assay type in all cases: biochemical, Streptomyces sp. NRRL S-515
PnaC = PnaC dipeptide ligation reactions (LC-HRMS); settings: for nucleophiles accepted upon activation of the carboxylate: role: substrate (activated carboxylate); for acceptance as carboxylate: role: substrate (carboxylate), 30° C, 16 hours
Experimental: (§1) These hypotheses were tested by overproducing and purifying recombinant PnaB and PnaC from E. coli for use in a series of biochemical assays. PnAla, Ala, and ATP were incubated with PnaB or PnaC and the reactions were monitored by ^31P NMR and LC-HRMS. […] To determine if either enzyme could convert Ala-Val into phosphonoalamide A, protein was removed from the PnaC reaction by ultrafiltration and Ala, ATP, and fresh PnaC or PnaB was added to the filtrate. LC-HRMS identified PnAla-Ala-Val as a product following the addition of PnaB, but not PnaC (FIG. 25A-FIG. 25C).
The ATP-Grasp ligases PnaC and PnaB underlie diversification of L-PnAla-containing oligopeptides. To understand the biochemical nature of this potential phosphonopeptide diversity, the substrate specificity of the dipeptide ligase PnaC was first delineated. Microscale biochemical reactions containing purified PnaC were performed with every combination of the 20 canonical amino acids and L-allo-threonine (231 total pairs of substrates). Reactions were analyzed by LC-HRMS to reveal putative dipeptides from 146 out of the 231 combinations. To distinguish residues in reactions containing isomeric pairs (e.g., Ile and Leu, Thr and allo-Thr) new reactions were prepared using ^15N-Ile and 4-^13C-2,3-D2-Thr as substrates. LC-HRMS/MS fragmentation analysis was then performed to verify all products and determine structures.
Biochemical assays of His6-PnaC. Typical reaction mixtures ([…]) contained 10 μM His6-PnaC, […], 3 mM of each L-amino acid, and 5 mM ATP in 50 mM Tris-HCl, 100 mM NaCl, 2 mM MgCl2 pH 9. Reactions were incubated at 30° C. for 16 hours, heat inactivated at 65° C. for 10 minutes, and then analyzed by LC-MS as described above.
(§2) Analysis of PnaC and PnaB substrate specificity reactions. An extracted ion chromatogram (EIC) was obtained for each potential product m z. The shape and retention time of each EIC were used to evaluate the quality and plausibility of true signals, and samples with low-confidence EICs were re-analyzed individually, to address the challenges of ion suppression (FIG. 31A-FIG. 31C) and background noise (FIG. 32A-FIG. 32D).

PnaB = PnaB ligation reactions (31P NMR, LC-HRMS); settings: for conversion of dipeptide with PnAla into phosphonoalamide: role: substrate, dipeptide 3 mM, with PnAla 1 mM and ATP 3 mM, pH 9, 30° C
Experimental: as §1
Biochemical assays of His6-PnaB. Typical reaction mixtures ([…]) contained 10 μM His6-PnaB, 3 mM ATP, 1 mM L-PnAla, 3 mM chemically synthesized L-Ala-L-Val, L-Val-L-Val, L-Ala-L-Ile, or L-Thr-L-Val in 50 mM Tris-HCl, 100 mM NaCl, 2 mM MgCl2 pH 9. Reactions were incubated at 30° C. for 2 hours, heat inactivated at 65° C. for 10 minutes, and then analyzed by NMR and LC-MS as described above.

PnaB and PnaC = test: One-pot tripeptide synthesis using PnaB and PnaC; settings: for abundance of PnAla conjugate: role: substrate (dipeptide), with PnAla 1 mM and ATP 5 mM, one-pot with PnaC
Text: Having established the diversity of dipeptides produced by PnaC, the reaction specificity of PnaB was probed. PnaC was used to generate substrates for the ligation of PnAla by PnaB. Microscale reactions contained PnaB, PnaC, PnAla, and all pairs of amino acids shown to form dipeptides. LC-HRMS and fragmentation analysis was then used to identify and verify PnAla-containing tripeptides from these 80 reactions (FIG. 4B, Table 4, Table 5). Altogether, the combined enzyme system produced 97 distinct PnAla-tripeptides, 93 of which had not been previously isolated (FIG. 29 & FIG. 30).
Tripeptide synthesis assays using PnaB and PnaC. Reaction mixtures ([…]) contained 10 μM His6-PnaB, 10 μM His6-PnaC, 1 mM L-PnAla, 3 mM L-amino acid A, 3 mM L-amino acid B, and 5 mM ATP in 50 mM Tris-HCl, 100 mM NaCl, 2 mM MgCl2 pH 9. Reactions were incubated at 30° C. for 16 hours, heat inactivated at 65° C. for 10 minutes, and then analyzed by NMR and LC-MS as described above.
as §2

PnaA with PnaD = test: PnaD-PnaA coupled forward reaction, 31P NMR (PEP to PnAla)
Experimental: Biochemical assays of His6-SUMO-PnaA with His6-PnaD. Typical reaction mixtures (300 μL) contained 20 μM His6-PnaD, 20 μM His6-SUMO-PnaA, 1.5 mM PEP, 3 mM L-Asp, 100 μM pyridoxal 5′-phosphate (PLP), and 2 mM MgCl2 in 50 mM HEPES, 150 mM NaCl, pH 7.5. Reactions were incubated at 30° C. for 2 hours, heat inactivated at 65° C. for 10 minutes, and then analyzed by ^31P NMR and LC-MS as described above.
Reactions in timecourse experiments ([…]) contained 10 μM His6-PnaD, 10 μM His6-SUMO-PnaA, 1.5 mM PEP, 10 mM L-Asp, 100 μM pyridoxal 5′-phosphate (PLP), and 2 mM MgCl2 in 50 mM HEPES, 150 mM NaCl, pH 7.5. Samples were where heat inactivated 1, 5, 10, 30, 60, 120, and 240 min after initiation and then analyzed by ^31P NMR as described above.
Reactions examining the effect of amino donor concentrations were the same as above, except they contained 1.5, 3, 5, or 10 mM of (L-Asp). Samples were heat inactivated after 120 min and then analyzed by ^31P NMR as described above.

PnaA = PnaA reverse transamination reaction, 31P NMR/LC-MS (PnAla to PnPy); settings: role: cofactor; additional PLP provided, with PnAla and OAA
Experimental: Biochemical assays of His6-SUMO-PnaA. Typical reaction mixtures (300 μL) contained 20 μM His6-SUMO-PnaA, 1.5 mM L-PnAla, 3 mM oxaloacetate, and 100 μM pyridoxal 5′-phosphate (PLP) in 50 mM HEPES, 150 mM NaCl, pH 7.5. Reactions were incubated at 30° C. for 2 hours, heat inactivated at 65° C. for 10 minutes, and then analyzed by NMR and LC-MS as described above.
Reactions in time course experiments (150 μL) contained 10 μM His6-SUMO-PnaA, 1.5 mM L-PnAla, 10 mM oxaloacetate (OAA), and 100 μM pyridoxal 5′-phosphate (PLP) in 50 mM HEPES, 150 mM NaCl, pH7.5. Samples were where heat inactivated 1, 5, 10, 30, 60, 120, and 240 min after initiation and then analyzed by ^31P NMR as described above.
Reactions examining the effect of keto-acid acceptor concentrations were the same as above, except they contained 1.5, 3, 5, or 10 mM of (OAA). Samples were heat inactivated after 120 min and then analyzed by ^31P NMR as described above.

## Nc1ncnc2c1ncn2[C@@H]1O[C@H](COP(=O)(O)OP(=O)(O)OP(=O)(O)O)[C@@H](O)[C@H]1O [ATP, reference compound]
PnaC; role: cofactor, ATP omitted
  ATP requirement: its omission abolished all activity
PnaB; role: cofactor, ATP omitted
  ATP requirement: its omission abolished all activity

## C[C@H](N)C(=O)O [Ala, Alanine]
PnaC; role: substrate, with ATP, LC-HRMS ion intensity
  substrate preference (average ion intensity of dipeptides): average ion intensity nearly a magnitude larger than any other group

## C[C@H](N)C(=O)N[C@@H](C)C(=O)O [Ala-Ala] (H-Ala-Ala-OH)
PnaB and PnaC
  abundance of PnAla conjugate: greatest abundance

## CC[C@H](C)[C@H](NC(=O)[C@H](C)N)C(=O)O [Ala-Ile] (H-Ala-Ile-OH)
PnaB and PnaC
  abundance of PnAla conjugate: greatest abundance
PnaB
  conversion of dipeptide with PnAla into phosphonoalamide: respective conversion into phosphonoalamides B, C, and D

## CC(C)C[C@H](NC(=O)[C@H](C)N)C(=O)O [Ala-Leu] (H-Ala-Leu-OH)
PnaB and PnaC
  abundance of PnAla conjugate: greatest abundance

## CSCC[C@H](NC(=O)[C@H](C)N)C(=O)O [Ala-Met] (H-Ala-Met-OH)
PnaB and PnaC
  abundance of PnAla conjugate: greatest abundance

## CC(C)[C@H](NC(=O)[C@H](C)N)C(=O)O [Ala-Val] (H-Ala-Val-OH)
PnaC; role: product, with Ala, Val, ATP
  dipeptide product of PnaC reaction (Ala + Val, ATP): product of the PnaC reaction
PnaB and PnaC
  abundance of PnAla conjugate: greatest abundance

## N[C@@H](CC(=O)O)C(=O)O [L-Asp, reference compound]
PnaA with PnaD; role: substrate (amino donor), with PEP, PLP
  amino donor dependence of PnAla formation: strictly dependent on L-Asp as the amino donor

## CSCC[C@H](N)C(=O)N[C@@H](Cc1c[nH]c2ccccc12)C(=O)O [Met-Trp] (H-Met-Trp-OH)
PnaC; role: product, PnaC-only reaction, Met and Trp, ATP
  product of Met + Trp reaction: detected as the sole product

## Cc1ncc(COP(=O)(O)O)c(C=O)c1O [PLP, pyridoxal 5′-phosphate, reference compound]
PnaA with PnaD; role: cofactor, without addition of PLP
  effect of PLP on PnAla formation: enzyme activity was observed at significantly reduced amounts
PnaA
  effect of PLP on PnPy formation: significantly greater PnPy was observed when additional PLP was provided

## CSCC[C@H](NC(=O)[C@H](Cc1c[nH]c2ccccc12)NC(=O)[C@@H](N)CP(=O)(O)O)C(=O)O [PnAla-Trp-Met]
PnaB and PnaC; role: product, two-enzyme system PnaBC, Met and Trp 3 mM each, ATP 5 mM
  product of Met + Trp reaction: major species

## C[C@@H](O)[C@H](N)C(=O)O [Thr, Threonine]
PnaC; with ATP
  nucleophiles accepted upon activation of the carboxylate: acceptance of Trp as a nucleophile, but not Thr or Pro

## CC(C)[C@H](NC(=O)[C@@H](N)[C@@H](C)O)C(=O)O [Thr-Val] (H-Thr-Val-OH)
PnaB
  conversion of dipeptide with PnAla into phosphonoalamide: respective conversion into phosphonoalamides B, C, and D

## CC(C)[C@H](N)C(=O)N[C@H](C(=O)O)C(C)C [Val-Val] (H-Val-Val-OH)
PnaB
  conversion of dipeptide with PnAla into phosphonoalamide: respective conversion into phosphonoalamides B, C, and D

## C[C@H](O)[C@H](N)C(=O)O [allo-Thr, allothreonine]
PnaC; with ATP
  nucleophiles accepted upon activation of the carboxylate: both Thr and Pro as nucleophiles, to the exclusion of Trp

## N=C(N)NCCC[C@H](N)C(=O)O [arginine, Arginine]
PnaC; with ATP
  acceptance as carboxylate: all but arginine and cysteine were accepted as carboxylates

## N[C@@H](CS)C(=O)O [cysteine, Cysteine]
PnaC; with ATP
  acceptance as carboxylate: all but arginine and cysteine were accepted as carboxylates
